Patent US20250197384A1, “AZOLE COMPOUND AND ANTIFUNGAL AGENT” (NIHON NOHYAKU CO., LTD., priority 2022, published 2025)
Converted amounts (≈) assume the structure as drawn.

Experiments:
Assay type in all cases: cell-based
[1] = test system: Aspergillus fumigatus TIMM0063; assay: In vitro anti-Aspergillus activity test; conditions: for MIC: Aspergillus fumigatus, read-out: minimum inhibitory concentration against various fungi (MIC) A. fumigatus; for MIC / minimum inhibitory concentration against various fungi (MIC) A. fumigatus: Table 22, 35° C. for 48 hr, alamar Blue, minimum concentration showing 80% or more inhibition; for A. fumigatus (MIC): 80% or more inhibition, unit inferred
Experimental: Aspergillus fumigatus TIMM0063 was used as the strain. The test fungi were cultured on a Potato dextrose agar slant medium at 35° C. for 4 days, and then sterilized saline containing 0.1% (v/v) Tween 80 was added to release the conidia. This conidial suspension was filtered through sterile gauze, and the number of conidia was counted using a hemocytometer. The same solution was adjusted to a conidial concentration of 1×10^6 conidia/mL, and this was used as an inoculum. Each compound was dissolved in dimethyl sulfoxide to a predetermined concentration, and diluted 50-fold with 0.165 M MOPS buffered RPMI 1640 liquid medium, and each diluted solution was dispensed into a 96-well microplate by each 100 μL. The inoculum was diluted 50-fold with 0.165 M MOPS buffered RPMI 1640 liquid medium containing 20% alamar Blue™, and the diluted solution was inoculated into the 96-well microplate containing the compound by each 100 μL (final inoculum amount 1.0×10^4 conidia/mL). After static culture at 35° C. for 48 hr, the degree of color development of the alamar Blue™ was measured using a microplate reader (O.D. 570-595 nm), and the minimum concentration showing 80% or more inhibition was defined as the minimum inhibitory concentration (MIC).

[2] = test system: Candida albicans NBRC1270; assay: In vitro anti-Candida activity test; conditions: for MIC: Candida albicans, read-out: minimum inhibitory concentration against various fungi (MIC) C. albicans; for MIC / minimum inhibitory concentration against various fungi (MIC) C. albicans: Table 22, 35° C. for 24 hr, alamar Blue, minimum concentration showing 80% or more inhibition; for C. albicans (MIC): 80% or more inhibition, unit inferred
Experimental: Candida albicans NBRC1270 was used as the strain. The test fungi were cultured on a Sabouraud dextrose agar slant medium at 35° C. for 24 hr, and then suspended in sterilized saline. The number of cells in this suspension was counted using a hemocytometer, and the same suspension was adjusted to a cell concentration of 1.5×10^5 cells/mL, and this was used as an inoculum. Each compound was dissolved in dimethyl sulfoxide to a predetermined concentration, and diluted 50-fold with 0.165 M MOPS buffered RPMI 1640 liquid medium, and each diluted solution was dispensed into a 96-well microplate by each 100 μL. The inoculum was diluted 50-fold with 0.165 M MOPS buffered RPMI 1640 liquid medium containing 20% alamar Blue™, and the diluted solution was inoculated into the 96-well microplate containing the compound by each 100 μL (final inoculum amount 1.5×10^3 cells/mL). After static culture at 35° C. for 24 hr, the degree of color development of the alamar Blue™ was measured using a microplate reader (O.D. 570-595 nm), and the minimum concentration showing 80% or more inhibition was defined as the minimum inhibitory concentration (MIC).

[3] = test system: Trichophyton rubrum NBRC6203; assay: In vitro anti-tinea fungus activity test (T. rubrum); conditions: Table 22, 27° C. for 5 days, alamar Blue, minimum concentration showing 80% or more inhibition; for MIC: Trichophyton rubrum, 120 h, read-out: minimum inhibitory concentration against various fungi (MIC) T. rubrum
Experimental: (§1) Trichophyton rubrum NBRC6203 and Trichophyton mentagrophytes TIMM2789 were used as the strains. The test fungi were cultured on a Sabouraud dextrose agar slant medium at 27° C. for 10-13 days, and then suspended in sterilized saline. The number of cells in this suspension was counted using a hemocytometer, and the same suspension was adjusted to a cell concentration of 2×10^6 conidia/mL, and this was used as an inoculum. Each compound was dissolved in dimethyl sulfoxide to a predetermined concentration, and diluted 50-fold with 0.165 M MOPS buffered RPMI 1640 liquid medium, and each diluted solution was dispensed into a 96-well microplate by each 100 μL. The inoculum was diluted 50-fold with 0.165 M MOPS buffered RPMI 1640 liquid medium containing 20% alamar Blue™, and the diluted solution was inoculated into the 96-well microplate containing the compound by each 100 μL (final inoculum amount 2×10^4 conidia/mL). After static culture at 27° C. for 3 days (Trichophyton mentagrophytes) or for 5 days (Trichophyton rubrum), the degree of color development of the alamar Blue™ was measured using a microplate reader (O.D. 570-595 nm), and the minimum concentration showing 80% or more inhibition was defined as the minimum inhibitory concentration (MIC).

[4] = test system: Trichophyton mentagrophytes TIMM2789; assay: In vitro anti-tinea fungus activity test (T. mentagrophytes); conditions: Table 22, 27° C. for 3 days, alamar Blue, minimum concentration showing 80% or more inhibition; for MIC: Trichophyton mentagrophytes, 72 h, read-out: minimum inhibitory concentration against various fungi (MIC) T. mentagrophytes
Experimental: as §1

Compound | minimum inhibitory concentration against various fungi (MIC) A. fumigatus [1] [ng/mL] | minimum inhibitory concentration against various fungi (MIC) C. albicans [2] [ng/mL] | minimum inhibitory concentration against various fungi (MIC) T. rubrum [3] [ng/mL] | minimum inhibitory concentration against various fungi (MIC) T. mentagrophytes [4] [ng/mL] | further results
CCCC1CC(c2cnc(C3CS/C(=C(/C#N)n4ccnc4)S3)c(Cl)c2)=NO1 (stereo not drawn) [Compound No. 6, (E)-2-{4-[3-chloro-5-(5-propyl-4,5-dihydroisoxazol-3-yl)pyridin-2-yl]-1,3-dithiolan-2-ylidene}-2-(1H-imidazol-1-yl)acetonitrile] |  |  |  |  | MIC [1]: 5 ng/mL (≈ 0.0116 µM); MIC [2]: 10 ng/mL (≈ 0.0231 µM); MIC [3]: 10 ng/mL (≈ 0.0231 µM); MIC [4]: 10 ng/mL (≈ 0.0231 µM)
CCOC(=O)Nc1cnc(C2CS/C(=C(/C#N)n3cncn3)S2)c(Cl)c1 (stereo not drawn) [compound 11] | 5 (≈ 0.0122 µM) | 10 (≈ 0.0245 µM) | ≤1 | 10 (≈ 0.0245 µM) | 
COC(=O)Nc1cnc(C2CS/C(=C(/C#N)n3cncn3)S2)c(Cl)c1 (stereo not drawn) [compound 7] | 5 (≈ 0.0127 µM) | 10 (≈ 0.0253 µM) | ≤1 | 10 (≈ 0.0253 µM) | 
COC(=O)Nc1cnc(C2CS/C(=C(/C#N)n3ccnc3)S2)c(Cl)c1 (stereo not drawn) [Compound No. 15, methyl (E)-(5-chloro-6-{2-[cyano(1H-imidazol-1-yl)methylene]-1,3-dithiolan-4-yl}pyridin-3-yl)carbamate] |  |  |  |  | MIC [1]: 5 ng/mL (≈ 0.0127 µM); MIC [2]: 2.5 ng/mL (≈ 0.00635 µM); MIC [3]: 10 ng/mL (≈ 0.0254 µM); MIC [4]: 10 ng/mL (≈ 0.0254 µM)
N#CCOc1cnc(C2CS/C(=C(/C#N)n3ccnc3)S2)c(Cl)c1 (stereo not drawn) [compound 4] | 5 (≈ 0.0133 µM) | 1000 (≈ 2.66 µM) | 10 (≈ 0.0266 µM) | 10 (≈ 0.0266 µM) | 
CCOC(=O)Nc1cnc(C2CS/C(=C(/C#N)n3ccnc3)S2)c(Cl)c1 (stereo not drawn) [compound 16] | 5 (≈ 0.0123 µM) | 2.5 (≈ 0.00613 µM) | ≤1 | 10 (≈ 0.0245 µM) | 
N#C/C(=C1/SCC(c2ncc(N)cc2Cl)S1)n1ccnc1 (racemic) [Compound No. 2] | 10 (≈ 0.0298 µM) | 1000 (≈ 2.98 µM) | 10 (≈ 0.0298 µM) | 10 (≈ 0.0298 µM) | 
N#C/C(=C1/SCC(c2ncc(Br)cc2Cl)S1)n1ccnc1 (racemic) [Compound No. 1] | 1.3 (≈ 0.00325 µM) | 100 (≈ 0.25 µM) | ≤1 | ≤1 | 
CO/N=C/c1cnc(C2CS/C(=C(/C#N)n3ccnc3)S2)c(Cl)c1 (stereo not drawn) [compound 24] | 2.5 (≈ 0.00662 µM) | 2.5 (≈ 0.00662 µM) | ≤1 | ≤1 | 
CC(C)(C)OC(=O)Nc1cnc(C2CS/C(=C(/C#N)n3cncn3)S2)c(Cl)c1 (stereo not drawn) [compound 12] | 100 (≈ 0.229 µM) | 10 (≈ 0.0229 µM) | 10 (≈ 0.0229 µM) | 100 (≈ 0.229 µM) | 
CO/N=C/c1cnc(C2CS/C(=C(/C#N)n3cncn3)S2)c(Cl)c1 (stereo not drawn) [compound 19] | 5 (≈ 0.0132 µM) | 10 (≈ 0.0264 µM) | ≤1 | 10 (≈ 0.0264 µM) | 
CCCON=Cc1cnc(C2CSC(=C(C#N)n3cncn3)S2)c(Cl)c1 (racemic) [compound 141] |  |  |  |  | A. fumigatus (MIC) ([1]; Table 24, 35° C. for 48 hr): 2.5 ng/mL; C. albicans (MIC) ([2]; Table 24, 35° C. for 24 hr): 2.5 ng/mL
N#C/C(=C1/SCC(c2ncc(NC(=O)OCC3CC3(Cl)Cl)cc2Cl)S1)n1cncn1 (racemic) [compound 151] |  |  |  |  | A. fumigatus (MIC) ([1]; Table 25, 35° C. for 48 hr): 10 ng/mL; C. albicans (MIC) ([2]; Table 25, 35° C. for 24 hr): 2.5 ng/mL
N#C/C(=C1/SCC(c2ncc(NC(=O)OCc3ncc(F)cc3F)cc2Cl)S1)n1cncn1 (racemic) [compound 75] |  |  |  |  | A. fumigatus (MIC) ([1]; Table 23, 35° C. for 48 hr): 10 ng/mL; C. albicans (MIC) ([2]; Table 23, 35° C. for 24 hr): 10 ng/mL
N#C/C(=C1/SCC(c2ncc(NC(=O)OCCCl)cc2Cl)S1)n1ccnc1 (stereo not drawn) [compound 66] |  |  |  |  | A. fumigatus (MIC) ([1]; Table 23, 35° C. for 48 hr): 10 ng/mL; C. albicans (MIC) ([2]; Table 23, 35° C. for 24 hr): 5 ng/mL
CCOC(=O)Nc1cnc([C@@H]2CS/C(=C(/C#N)n3cncn3)S2)c(Cl)c1 [compound 79] |  |  |  |  | A. fumigatus (MIC) ([1]; Table 23, 35° C. for 48 hr): 5 ng/mL; C. albicans (MIC) ([2]; Table 23, 35° C. for 24 hr): 5 ng/mL
N#C/C(=C1/SC[C@@H](c2ncc(NC(=O)OCc3ccccc3)cc2Cl)S1)n1cncn1 [compound 100] |  |  |  |  | A. fumigatus (MIC) ([1]; Table 23, 35° C. for 48 hr): 2.5 ng/mL; C. albicans (MIC) ([2]; Table 23, 35° C. for 24 hr): 0.63 ng/mL
N#C/C(=C1/SC[C@@H](c2ncc(NC(=O)OCC3CC3(F)F)cc2Cl)S1)n1cncn1 (stereo partly drawn) [compound 130] |  |  |  |  | A. fumigatus (MIC) ([1]; Table 24, 35° C. for 48 hr): 5 ng/mL; C. albicans (MIC) ([2]; Table 24, 35° C. for 24 hr): 2.5 ng/mL
N#C/C(=C1/SCC(c2ncc(NC(=O)OCc3ccccc3)cc2Cl)S1)n1cncn1 (stereo not drawn) [compound 14] | 5 (≈ 0.0106 µM) | 1.3 (≈ 0.00276 µM) |  |  | 
N#C/C(=C1/SCC(c2ncc(NC(=O)OCC3CC3)cc2Cl)S1)n1cncn1 (racemic) [compound 87] |  |  |  |  | A. fumigatus (MIC) ([1]; Table 23, 35° C. for 48 hr): 5 ng/mL; C. albicans (MIC) ([2]; Table 23, 35° C. for 24 hr): 1.25 ng/mL
CC(C)CON=Cc1cnc(C2CSC(=C(C#N)n3cncn3)S2)c(Cl)c1 (racemic) [compound 143] |  |  |  |  | A. fumigatus (MIC) ([1]; Table 24, 35° C. for 48 hr): 5 ng/mL; C. albicans (MIC) ([2]; Table 24, 35° C. for 24 hr): 2.5 ng/mL
CC(C)ON=Cc1cnc(C2CSC(=C(C#N)n3cncn3)S2)c(Cl)c1 (racemic) [compound 142] |  |  |  |  | A. fumigatus (MIC) ([1]; Table 24, 35° C. for 48 hr): 10 ng/mL; C. albicans (MIC) ([2]; Table 24, 35° C. for 24 hr): 2.5 ng/mL
